Results reported in ChEMBL document CHEMBL1201862, “PubChem BioAssay data set” (2004).
The source made the active and inactive calls.

What was measured:
[1] = target: Cytochrome P450 3A4 (Homo sapiens, UniProt P08684); settings: Potency;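 also: confirmatory qHTS run detecting inhibitors and substrates of CYP3A4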
[2] = target: T1, Neuropeptide Y receptor type 1 (Homo sapiens, UniProt P25929); experiment: Fluorescence-based counterscreen for agonists of NPY-Y2: cell-based high-throughput dose response assay for agonists of NPY-Y1.; format: functional
T1 sequence (P25929 whole entry): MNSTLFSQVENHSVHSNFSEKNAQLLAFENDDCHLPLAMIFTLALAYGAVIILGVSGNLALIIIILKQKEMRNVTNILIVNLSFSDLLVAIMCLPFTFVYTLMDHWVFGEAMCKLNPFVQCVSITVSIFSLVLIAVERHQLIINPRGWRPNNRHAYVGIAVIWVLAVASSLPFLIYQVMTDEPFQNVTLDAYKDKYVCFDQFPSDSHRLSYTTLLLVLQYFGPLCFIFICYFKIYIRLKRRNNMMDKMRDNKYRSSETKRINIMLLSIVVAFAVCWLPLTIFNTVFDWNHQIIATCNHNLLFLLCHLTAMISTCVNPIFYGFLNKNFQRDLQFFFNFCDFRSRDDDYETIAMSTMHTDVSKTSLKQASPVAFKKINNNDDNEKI

[3] = tested on: HEK293; experiment: Fluorescence-based counterscreen for potentiators or agonists of NPY-Y2: cell-based high-throughput dose response assay to identify inhibitors of cyclic nucleotide gated ion channel (CNGC) activity. In this assay, the parental HEK293 cell line transfected with a cyclic-nucleotide gated ion channel (CNGC)-based cAMP sensor is used to measure inhibition of isoproterenol-induced CNGC activity by test compound.; format: functional; settings: Homo sapiens;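 also: stimulus is 1 µM isoproterenol at EC100 plus PDE inhibitor Ro 20-1724 at 25 µM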
[4] = target: T2, Neuropeptide Y receptor type 2 (Homo sapiens, UniProt P49146); experiment: Fluorescence-based cell-based high-throughput dose response assay for potentiators or agonists of NPY-Y2. [Related pubchem assays: 1539 (Screening assay (NPY-Y2 potentiators or agonists).), 1703 (Screening assay (CNGC inhibitors).), 1359 (Screening assay (NPY-Y2 potentiators or agonists).), 1304 (Screening assay (NPY-Y1 potentiators or agonists).) …; format: functional
T2 sequence (P49146 whole entry): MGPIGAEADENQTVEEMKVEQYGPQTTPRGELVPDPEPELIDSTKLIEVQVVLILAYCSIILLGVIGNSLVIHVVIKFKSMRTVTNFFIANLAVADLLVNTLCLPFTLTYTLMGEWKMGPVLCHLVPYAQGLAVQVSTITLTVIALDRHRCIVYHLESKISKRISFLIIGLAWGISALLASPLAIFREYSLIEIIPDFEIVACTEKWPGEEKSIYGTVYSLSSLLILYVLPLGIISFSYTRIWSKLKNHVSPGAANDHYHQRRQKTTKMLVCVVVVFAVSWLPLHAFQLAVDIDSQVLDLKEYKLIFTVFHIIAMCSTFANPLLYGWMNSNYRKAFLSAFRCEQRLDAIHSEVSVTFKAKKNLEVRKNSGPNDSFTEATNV

[5] = target: T1, Neuropeptide Y receptor type 1; experiment: Fluorescence-based counterscreen for potentiators or agonists of NPY-Y2: cell-based high-throughput dose response assay for potentiators or agonists of NPY-Y1.; format: functional
[6] = target: T2, Neuropeptide Y receptor type 2; experiment: Fluorescence-based cell-based high-throughput dose response assay for agonists of NPY-Y2. [Related pubchem assays: 1703 (Screening assay (CNGC inhibitors).), 1359 (Screening assay (NPY-Y2 potentiators or agonists).), 1304 (Screening assay (NPY-Y1 potentiators or agonists).), 1710 (Screening assay (NPY-Y2 agonists).), 1791 (Summary AID.)]; format: functional
[7] = target: Wee1-like protein kinase (Homo sapiens, UniProt P30291); experiment: G2/M cell cycle arrest in HeLa, late-stage follow-up, mechanism study for Wee1 degradation inhibitor project, FACS, panel member Wee1 Degradation (AID 2088)
[8] = target: G2/mitotic-specific cyclin-B1 (Homo sapiens, UniProt P14635); experiment: G2/M cell cycle arrest in HeLa, late-stage follow-up, mechanism study for Wee1 degradation inhibitor project, FACS, panel member Cyclin B Degradation (AID 2088)
[9] = target: T3, Rac GTPase-activating protein 1 (Homo sapiens, UniProt Q9H0H5); experiment: MgcRacGAP GTPase-activating activity inhibitors, confirmation, biochemical, ADP Hunter fluorescence, primary and confirmatory (AID 624330); format: functional
T3 sequence (Q9H0H5 whole entry): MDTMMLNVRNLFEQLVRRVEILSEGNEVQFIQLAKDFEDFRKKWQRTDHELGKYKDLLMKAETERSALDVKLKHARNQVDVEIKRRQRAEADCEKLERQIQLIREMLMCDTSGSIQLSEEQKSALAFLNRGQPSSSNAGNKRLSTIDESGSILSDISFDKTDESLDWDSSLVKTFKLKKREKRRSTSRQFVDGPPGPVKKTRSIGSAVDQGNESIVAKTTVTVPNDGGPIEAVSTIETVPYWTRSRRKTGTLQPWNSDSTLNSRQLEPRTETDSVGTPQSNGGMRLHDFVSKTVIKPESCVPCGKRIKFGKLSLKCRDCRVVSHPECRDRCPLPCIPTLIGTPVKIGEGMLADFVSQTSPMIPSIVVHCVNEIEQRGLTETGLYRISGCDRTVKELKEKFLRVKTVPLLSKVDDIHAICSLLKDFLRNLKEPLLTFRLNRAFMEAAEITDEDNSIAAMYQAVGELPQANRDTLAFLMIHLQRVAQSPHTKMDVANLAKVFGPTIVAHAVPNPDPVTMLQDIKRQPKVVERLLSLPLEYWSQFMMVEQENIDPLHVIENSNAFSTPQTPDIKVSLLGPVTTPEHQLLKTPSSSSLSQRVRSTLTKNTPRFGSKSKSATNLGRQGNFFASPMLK

[10] = target: T4, Small ubiquitin-related modifier 1 (Homo sapiens, UniProt P63165); experiment: inhibitors of SUMO1 peptide binding, dose response, biochemical, fluorescence polarization, uHTS hits (AID 624382); format: functional; settings: read-out: IC50_Mean
[11] = tested on: Salmon testes DNA; experiment: DNA intercalators displacing acridine orange, dose response, artefact control for KSHV LANA DNA-binding inhibitor project, biochemical, fluorescence polarization, cherry-picked samples, set 2 (AID 504727); set-up: species or system Salmonidae
[12] = target: T5, ORF 73 (Human herpesvirus 8, UniProt O40947); experiment: inhibitors of C-LANA binding to LBS DNA, dose response, biochemical, fluorescence polarization, cherry-picked samples (AID 504725); set-up: species or system Human gammaherpesvirus 8;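 also: fluorescence polarization of a labeled DNA duplex reporting LANA DNA binding; potency is for inhibitors that block LANA binding to the DNA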
T5 sequence (O40947 whole entry): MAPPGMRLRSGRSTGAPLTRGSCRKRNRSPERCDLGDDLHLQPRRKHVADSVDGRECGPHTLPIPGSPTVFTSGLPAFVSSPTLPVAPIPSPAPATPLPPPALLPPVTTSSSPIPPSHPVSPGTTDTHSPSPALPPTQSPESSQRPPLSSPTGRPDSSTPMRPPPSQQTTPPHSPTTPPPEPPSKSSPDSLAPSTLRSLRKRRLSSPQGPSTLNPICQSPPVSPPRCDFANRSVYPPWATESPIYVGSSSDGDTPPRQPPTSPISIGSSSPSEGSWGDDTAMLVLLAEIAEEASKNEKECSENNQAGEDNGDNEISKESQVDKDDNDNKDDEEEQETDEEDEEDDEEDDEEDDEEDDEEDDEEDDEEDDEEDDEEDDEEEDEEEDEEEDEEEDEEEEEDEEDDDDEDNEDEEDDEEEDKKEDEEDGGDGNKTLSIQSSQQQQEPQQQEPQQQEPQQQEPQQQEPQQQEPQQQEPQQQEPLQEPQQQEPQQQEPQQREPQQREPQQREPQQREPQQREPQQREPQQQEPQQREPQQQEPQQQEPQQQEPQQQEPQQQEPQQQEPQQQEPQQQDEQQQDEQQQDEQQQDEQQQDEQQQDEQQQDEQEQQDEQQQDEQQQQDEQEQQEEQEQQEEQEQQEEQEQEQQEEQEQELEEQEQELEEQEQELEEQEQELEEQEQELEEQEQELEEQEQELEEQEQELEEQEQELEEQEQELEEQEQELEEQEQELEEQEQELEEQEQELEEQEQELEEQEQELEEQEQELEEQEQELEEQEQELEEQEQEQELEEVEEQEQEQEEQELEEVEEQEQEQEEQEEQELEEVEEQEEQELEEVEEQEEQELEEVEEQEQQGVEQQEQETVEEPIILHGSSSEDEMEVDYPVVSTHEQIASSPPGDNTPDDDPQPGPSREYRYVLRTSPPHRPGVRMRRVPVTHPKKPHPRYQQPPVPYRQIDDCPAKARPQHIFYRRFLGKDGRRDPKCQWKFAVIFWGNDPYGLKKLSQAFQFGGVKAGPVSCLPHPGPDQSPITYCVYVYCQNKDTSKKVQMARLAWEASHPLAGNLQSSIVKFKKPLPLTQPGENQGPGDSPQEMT

[13] = target: Genome polyprotein (dengue virus type 2, UniProt P29990); experiment: Dengue-2 NS5 methyltransferase inhibitors, primary screen, biochemical, confirmation dose response (AID 588689); format: functional
[14] = target: T4, Small ubiquitin-related modifier 1; experiment: inhibitors of SUMO1 partner interactions, dose response, biochemical, FRET (AID 624383); format: functional; settings: read-out: IC50_Mean
[15] = target: T6, Neuropeptides B/W receptor type 1 (Homo sapiens, UniProt P48145); experiment: GPR7 antagonist potency, late-stage follow-up, cell-based, fluorescence, dose response (AID 463251); format: functional
T6 sequence (P48145 whole entry): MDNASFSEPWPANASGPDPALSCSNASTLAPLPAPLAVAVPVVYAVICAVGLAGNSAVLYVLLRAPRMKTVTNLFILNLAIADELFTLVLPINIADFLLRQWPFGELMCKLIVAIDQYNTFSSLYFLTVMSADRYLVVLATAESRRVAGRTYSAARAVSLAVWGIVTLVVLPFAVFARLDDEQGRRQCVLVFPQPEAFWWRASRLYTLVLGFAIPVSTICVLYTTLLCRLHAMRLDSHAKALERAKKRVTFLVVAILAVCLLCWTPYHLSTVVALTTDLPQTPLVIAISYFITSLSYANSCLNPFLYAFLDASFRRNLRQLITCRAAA

[16] = target: Melanin-concentrating hormone receptor 1 (Homo sapiens, UniProt Q99705); experiment: Late-stage fluorescence-based counterscreen for antagonists of the G-protein coupled receptor 7 (GPR7): cell-based dose response assay to identify antagonists of the melanin-concentrating hormone receptor 1 (MCHR1). [Related pubchem assays (depositor defined):AID1861, AID1880, AID1952, AID2148, AID2251, AID2257, AID485339]; format: functional;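 also: stimulated with 30 nM MCH peptide agonist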
[17] = target: Cytochrome P450 2D6 (Homo sapiens, UniProt P10635); experiment: qHTS Assay for Inhibitors and Substrates of Cytochrome P450 2D6. [Related pubchem assays: 410 ]; format: ADME; settings: read-out: Potency
[18] = target: Cytochrome P450 2C9 (Homo sapiens, UniProt P11712); settings: Potency
[19] = tested on: DLD-1; experiment: cytotoxicity in DLD-1 colorectal cells, late-stage follow-up, cytotoxicity control for KLF5 inhibitor project, cell-based, luminescence, round 1 (AID 485338); format: functional; settings: Homo sapiens
[20] = Luminescence-based counterscreen assay for KLF5 inhibitors: dose response cell-based high throughput screening assay to identify cytotoxic compounds using the IEC-6 intestinal epithelial cell line. [Related pubchem assays: 1700 (Primary screen.), 1834 (Confirmation screen.), 1858 (Summary AID.), 1905 (Counterscreen.)]; format: functional
[21] = target: Lysosomal acid glucosylceramidase (Homo sapiens, UniProt P04062); experiment: Dose response cell-based high throughput screening assay to identify enhancers of beta-glucosidase activity. [Related pubchem assays: 784 ]; format: functional
[22] = target: Signal transducer and activator of transcription 3 (Homo sapiens, UniProt P40763); experiment: STAT3 activators, late-stage profile, late-stage follow-up, cell-based, STAT1 reporter, BCL3 qPCR, cytotoxicity, panel member STAT3 Activation (AID 2049)
[23] = tested on: Staphylococcus aureus; experiment: Inhibitors of Bacterial Quorum Sensing Structure Activity Relationship (SAR) Analysis: Dose Response Assay. [Related pubchem assays: 700, 527 ]; format: functional, organism-based
[24] = tested on: Vero; experiment: cytotoxicity of synthesized analogs in Vero cells, SAR follow-up, cytotoxicity control for West Nile virus antiviral project, cell-based, set II (AID 2402); format: functional; settings: Chlorocebus sabaeus
[25] = tested on: Vero; experiment: Vero E6 cell cytotoxicity, SAR follow-up, cytotoxicity control for West Nile virus antiviral project, synthesized analogs (AID 2244); format: functional; settings: Chlorocebus sabaeus

T4 sequence (P63165 whole entry): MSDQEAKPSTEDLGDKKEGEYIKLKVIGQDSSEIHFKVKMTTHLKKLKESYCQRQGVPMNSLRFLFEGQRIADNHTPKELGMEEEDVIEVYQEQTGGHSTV
Sequence of Cytochrome P450 3A4 (P08684 whole entry): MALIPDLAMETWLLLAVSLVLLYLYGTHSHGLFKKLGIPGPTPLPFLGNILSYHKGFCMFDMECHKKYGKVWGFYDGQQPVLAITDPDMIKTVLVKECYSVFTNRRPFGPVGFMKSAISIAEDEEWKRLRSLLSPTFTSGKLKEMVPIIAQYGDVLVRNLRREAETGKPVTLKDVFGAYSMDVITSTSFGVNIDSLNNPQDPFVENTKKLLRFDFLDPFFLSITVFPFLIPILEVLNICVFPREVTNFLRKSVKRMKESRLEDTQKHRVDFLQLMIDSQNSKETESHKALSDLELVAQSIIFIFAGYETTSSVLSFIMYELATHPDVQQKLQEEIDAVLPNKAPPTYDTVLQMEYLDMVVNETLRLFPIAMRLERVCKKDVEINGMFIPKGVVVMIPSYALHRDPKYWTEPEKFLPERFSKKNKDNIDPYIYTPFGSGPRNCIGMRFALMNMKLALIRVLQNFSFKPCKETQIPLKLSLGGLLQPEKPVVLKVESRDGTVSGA
Sequence of G2/mitotic-specific cyclin-B1 (P14635 whole entry): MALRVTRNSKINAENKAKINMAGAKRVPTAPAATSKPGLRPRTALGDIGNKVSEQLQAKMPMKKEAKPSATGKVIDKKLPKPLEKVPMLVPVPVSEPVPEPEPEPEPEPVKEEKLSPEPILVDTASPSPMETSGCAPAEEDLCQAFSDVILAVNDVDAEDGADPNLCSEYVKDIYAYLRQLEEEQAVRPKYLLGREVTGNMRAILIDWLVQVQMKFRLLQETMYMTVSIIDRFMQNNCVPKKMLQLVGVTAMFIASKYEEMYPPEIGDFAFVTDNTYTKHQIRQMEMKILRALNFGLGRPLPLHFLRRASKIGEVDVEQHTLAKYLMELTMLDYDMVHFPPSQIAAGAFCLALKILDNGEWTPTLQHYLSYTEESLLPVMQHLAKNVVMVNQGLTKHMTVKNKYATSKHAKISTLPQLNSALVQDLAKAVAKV
Sequence of Lysosomal acid glucosylceramidase (P04062 whole entry): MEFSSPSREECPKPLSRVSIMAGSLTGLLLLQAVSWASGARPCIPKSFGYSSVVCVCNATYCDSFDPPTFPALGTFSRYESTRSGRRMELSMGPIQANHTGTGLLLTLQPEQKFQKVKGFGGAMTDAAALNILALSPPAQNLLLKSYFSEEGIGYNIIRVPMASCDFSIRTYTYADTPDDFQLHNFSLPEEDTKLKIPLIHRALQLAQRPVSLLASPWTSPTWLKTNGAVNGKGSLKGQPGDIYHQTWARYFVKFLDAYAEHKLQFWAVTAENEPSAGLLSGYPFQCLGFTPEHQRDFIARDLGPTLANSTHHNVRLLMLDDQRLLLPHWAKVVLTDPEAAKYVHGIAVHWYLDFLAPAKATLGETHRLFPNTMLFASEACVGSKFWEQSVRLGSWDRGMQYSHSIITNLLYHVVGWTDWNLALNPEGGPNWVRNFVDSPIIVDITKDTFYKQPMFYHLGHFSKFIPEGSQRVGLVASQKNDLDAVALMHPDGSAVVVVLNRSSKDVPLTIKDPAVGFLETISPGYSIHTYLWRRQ
Sequence of Wee1-like protein kinase (P30291 whole entry): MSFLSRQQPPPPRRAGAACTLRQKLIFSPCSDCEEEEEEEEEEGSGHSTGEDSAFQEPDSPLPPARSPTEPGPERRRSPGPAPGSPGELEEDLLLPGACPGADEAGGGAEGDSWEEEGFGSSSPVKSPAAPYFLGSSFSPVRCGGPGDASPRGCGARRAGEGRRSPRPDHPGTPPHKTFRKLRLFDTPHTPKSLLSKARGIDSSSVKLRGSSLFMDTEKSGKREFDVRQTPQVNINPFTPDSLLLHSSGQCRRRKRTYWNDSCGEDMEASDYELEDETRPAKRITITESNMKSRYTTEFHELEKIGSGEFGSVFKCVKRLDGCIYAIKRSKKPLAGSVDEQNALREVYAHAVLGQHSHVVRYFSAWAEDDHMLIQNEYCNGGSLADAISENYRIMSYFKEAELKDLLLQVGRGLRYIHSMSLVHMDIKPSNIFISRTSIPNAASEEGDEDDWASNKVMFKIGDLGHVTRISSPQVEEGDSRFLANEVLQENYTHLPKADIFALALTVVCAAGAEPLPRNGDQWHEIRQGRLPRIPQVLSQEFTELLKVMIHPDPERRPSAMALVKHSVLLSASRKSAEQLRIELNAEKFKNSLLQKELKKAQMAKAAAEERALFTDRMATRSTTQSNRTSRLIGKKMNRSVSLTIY
Sequence of Cytochrome P450 2C9 (P11712 whole entry): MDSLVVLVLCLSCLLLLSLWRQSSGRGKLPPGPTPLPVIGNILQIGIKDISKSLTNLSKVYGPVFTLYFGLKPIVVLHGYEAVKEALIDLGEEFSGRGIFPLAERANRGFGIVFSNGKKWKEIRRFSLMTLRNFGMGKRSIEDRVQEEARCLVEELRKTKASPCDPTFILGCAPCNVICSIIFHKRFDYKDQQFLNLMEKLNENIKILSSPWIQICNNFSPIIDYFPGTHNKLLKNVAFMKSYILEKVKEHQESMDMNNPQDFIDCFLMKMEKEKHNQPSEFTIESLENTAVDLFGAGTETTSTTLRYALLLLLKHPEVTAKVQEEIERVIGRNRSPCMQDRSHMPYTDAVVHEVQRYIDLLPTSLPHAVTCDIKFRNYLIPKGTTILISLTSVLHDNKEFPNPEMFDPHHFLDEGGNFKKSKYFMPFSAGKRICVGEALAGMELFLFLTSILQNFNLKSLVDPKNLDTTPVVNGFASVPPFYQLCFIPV
Sequence of Genome polyprotein (P29990 2492-3391 limits assumed): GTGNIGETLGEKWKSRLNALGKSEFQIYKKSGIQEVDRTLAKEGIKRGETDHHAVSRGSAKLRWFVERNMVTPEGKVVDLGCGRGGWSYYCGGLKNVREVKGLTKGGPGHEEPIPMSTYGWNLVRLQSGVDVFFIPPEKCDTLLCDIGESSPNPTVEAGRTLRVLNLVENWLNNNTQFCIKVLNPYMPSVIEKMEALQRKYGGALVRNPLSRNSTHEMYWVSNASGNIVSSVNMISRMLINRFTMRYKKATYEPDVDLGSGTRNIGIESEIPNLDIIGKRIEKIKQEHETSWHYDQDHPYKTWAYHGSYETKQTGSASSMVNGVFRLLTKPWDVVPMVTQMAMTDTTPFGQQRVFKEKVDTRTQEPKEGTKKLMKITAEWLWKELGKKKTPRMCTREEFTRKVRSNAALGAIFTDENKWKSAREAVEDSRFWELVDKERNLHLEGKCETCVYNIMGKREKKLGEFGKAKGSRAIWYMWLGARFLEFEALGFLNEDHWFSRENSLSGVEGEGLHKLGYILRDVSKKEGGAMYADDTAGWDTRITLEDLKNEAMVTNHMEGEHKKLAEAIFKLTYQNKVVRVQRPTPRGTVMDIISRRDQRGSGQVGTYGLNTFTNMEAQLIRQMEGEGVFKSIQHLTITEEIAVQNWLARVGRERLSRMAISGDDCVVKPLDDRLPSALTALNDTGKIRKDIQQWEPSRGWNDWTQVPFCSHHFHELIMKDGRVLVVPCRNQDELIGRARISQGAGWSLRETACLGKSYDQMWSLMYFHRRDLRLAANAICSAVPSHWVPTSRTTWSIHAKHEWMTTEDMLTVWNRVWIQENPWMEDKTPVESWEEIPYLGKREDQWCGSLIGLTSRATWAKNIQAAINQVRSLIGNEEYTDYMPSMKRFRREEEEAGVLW
Sequence of Melanin-concentrating hormone receptor 1 (Q99705 whole entry): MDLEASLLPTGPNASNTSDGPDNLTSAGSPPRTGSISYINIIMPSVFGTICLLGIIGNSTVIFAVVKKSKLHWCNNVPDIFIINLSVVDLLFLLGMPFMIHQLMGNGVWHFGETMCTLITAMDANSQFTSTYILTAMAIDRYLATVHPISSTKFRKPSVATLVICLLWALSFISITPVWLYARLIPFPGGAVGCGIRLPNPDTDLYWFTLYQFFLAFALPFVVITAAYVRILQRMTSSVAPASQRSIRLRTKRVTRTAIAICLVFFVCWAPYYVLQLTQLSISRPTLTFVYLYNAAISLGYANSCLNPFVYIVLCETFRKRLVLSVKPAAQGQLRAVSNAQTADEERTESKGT
Sequence of Signal transducer and activator of transcription 3 (P40763 whole entry): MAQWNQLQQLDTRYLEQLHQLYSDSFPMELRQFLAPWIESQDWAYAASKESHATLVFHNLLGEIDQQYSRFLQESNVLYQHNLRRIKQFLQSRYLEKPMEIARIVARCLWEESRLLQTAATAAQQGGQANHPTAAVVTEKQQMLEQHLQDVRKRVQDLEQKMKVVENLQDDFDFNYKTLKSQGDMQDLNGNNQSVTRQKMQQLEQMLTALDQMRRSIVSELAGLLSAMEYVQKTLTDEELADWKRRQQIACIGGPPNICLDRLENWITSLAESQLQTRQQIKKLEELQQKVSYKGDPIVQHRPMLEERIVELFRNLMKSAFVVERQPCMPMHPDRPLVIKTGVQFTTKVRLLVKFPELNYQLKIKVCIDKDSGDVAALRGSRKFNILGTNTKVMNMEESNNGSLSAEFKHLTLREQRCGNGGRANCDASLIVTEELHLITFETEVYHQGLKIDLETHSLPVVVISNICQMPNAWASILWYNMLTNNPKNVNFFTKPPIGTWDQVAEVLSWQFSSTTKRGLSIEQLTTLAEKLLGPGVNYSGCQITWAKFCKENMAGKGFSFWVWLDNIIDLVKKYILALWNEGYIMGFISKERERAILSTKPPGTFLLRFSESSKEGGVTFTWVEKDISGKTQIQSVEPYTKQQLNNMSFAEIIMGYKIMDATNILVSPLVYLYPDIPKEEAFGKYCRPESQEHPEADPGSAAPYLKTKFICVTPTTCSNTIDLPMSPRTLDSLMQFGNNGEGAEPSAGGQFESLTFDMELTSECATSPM

C[C@@H]1CCC2[C@@H](C)[C@@H](O)O[C@@H]3O[C@@]4(C)CC[C@@H]1[C@@]23OO4 (stereo not given in full)
AC50 [1]: 12.6 µM (inconclusive)

Cc1cccc2c(N)c3c(nc12)CCCC3.O=C(O)c1cc([N+](=O)[O-])ccc1Cl
EC50 [2]: 3.41 µM (active)
EC50 [3]: 8.74 µM (active)
EC50 [4]: 5.24 µM (active)
EC50 [5]: 5.53 µM (active)
EC50 [6]: 3.65 µM (active)

Cc1cccc(CC(=O)Nc2cc(C)nn2-c2nc(C)cc(=O)[nH]2)c1
EC50 [7]: > 49.7 µM (inactive)
EC50 [8]: > 49.7 µM (inactive)

Nc1cccc2c(O)cc(S(=O)(=O)O)cc12
IC50 [9]: 98.6 µM (active)
IC50 [10]: > 66.6 µM (inactive)
AC50 [11]: 132 µM (active)
AC50 [12]: 29.7 µM (active)
IC50 [13]: 42.7 µM (active)
IC50 [14]: 5.35 µM (active)

O=C(C1CCCCN1Cc1cccc(Cl)c1)N1CCN(c2ccc([N+](=O)[O-])cc2)CC1 (stereo not given)
IC50 [15]: 2.8 µM (active)
IC50 [16]: 2.9 µM (active)

CC(=O)OC(C)(C)/N=N\c1ccc(Br)cc1
AC50 [17]: 3.16 µM (inconclusive)
AC50 [18]: 5.01 µM (inconclusive)

CCOC(=O)c1sc(NC(=O)c2cc3c(s2)CCC(C)C3)nc1C (stereo not given)
IC50 [19]: 19.3 µM (inactive)
IC50 [20]: > 39.8 µM (not active)

N#Cc1c2n(c3c(=O)n(Cc4ccccc4Cl)cnc13)CCCCC2
EC50 [21]: > 50 µM (not active)

COc1ccc(OC)c(NC(=O)c2cc(CN3CCCC3)on2)c1
EC50 [22]: > 55.7 µM (inactive)

CC(C)c1ccc(NC(=O)C(c2ccc3c(c2)OCO3)N2CCCCC2)cc1 (stereo not given)
IC50 [23]: 0.254 µM (active)

O=c1c2cc(Cl)cc(Cl)c2nc2n1CCC2
CC50 [24]: > 100 µM (active)
CC50 [25]: > 40 µM (active)
